One experiment deals with T1, human ETB receptor (Homo sapiens, UniProt P24530).
T1 construct: expressed in transfected cells; host or cells: COS7 cells
T1 sequence (P24530 27-442): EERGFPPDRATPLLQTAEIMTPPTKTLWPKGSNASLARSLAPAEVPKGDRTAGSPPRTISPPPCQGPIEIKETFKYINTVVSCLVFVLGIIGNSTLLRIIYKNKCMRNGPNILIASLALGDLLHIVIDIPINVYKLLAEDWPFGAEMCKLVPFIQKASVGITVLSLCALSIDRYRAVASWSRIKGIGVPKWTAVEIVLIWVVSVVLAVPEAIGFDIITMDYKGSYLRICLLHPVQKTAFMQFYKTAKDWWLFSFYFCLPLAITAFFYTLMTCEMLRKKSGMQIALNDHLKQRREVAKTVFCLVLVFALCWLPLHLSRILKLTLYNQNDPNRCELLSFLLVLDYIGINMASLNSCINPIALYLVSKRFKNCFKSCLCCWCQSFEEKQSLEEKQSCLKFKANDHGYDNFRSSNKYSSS
The experiment is described as follows: Binding Test #2: inhibition of 125I-ET-1 binding to ETB receptors (transfected COS7 cell membranes). Summed up: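 Competition with 125I-ET-1 for binding to membranes from COS7 cells transfected with human ETB receptor, used at 1 μg/50 μl binding buffer. Membranes prepared in HEPES pH 7.4 with aprotinin, including a DNase/MnCl2 step at 37 °C for 30 min.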

The target of a further experiment is T2, human ETA receptors (Homo sapiens, UniProt P25101).
T2 construct: endogenous in cells; host or cells: TE 671 cells (ATCC HTB 139)
T2 sequence (P25101 21-427): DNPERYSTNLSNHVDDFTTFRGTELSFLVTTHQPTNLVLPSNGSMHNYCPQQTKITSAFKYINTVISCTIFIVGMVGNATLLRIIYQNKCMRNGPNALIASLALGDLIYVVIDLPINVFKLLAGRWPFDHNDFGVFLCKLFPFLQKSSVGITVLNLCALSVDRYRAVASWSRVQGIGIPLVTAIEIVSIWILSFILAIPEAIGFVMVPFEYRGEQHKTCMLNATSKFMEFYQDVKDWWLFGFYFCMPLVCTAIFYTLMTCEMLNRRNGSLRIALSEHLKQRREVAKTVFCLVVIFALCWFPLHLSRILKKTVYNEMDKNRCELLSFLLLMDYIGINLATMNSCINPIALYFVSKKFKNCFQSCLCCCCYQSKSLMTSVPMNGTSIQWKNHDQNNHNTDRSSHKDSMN
Description: Binding Test #1: inhibition of 125I-ET-1 binding to ETA receptors (TE 671 cell membranes). Summed up: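 Radioligand competition in triplicate: ¹²⁵I-endothelin-1 displaced by test compound (1 nM–100 μM final) from ETA-bearing TE 671 cell membranes in HEPES pH 7.4 binding buffer with NaCl, MgCl2 and bacitracin. Incubation 16–18 h at 4 °C (or at 24 °C); 80 nM ET-1 defines nonspecific binding; pellet radioactivity gives percent inhibition.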

Where [1] appears, read: Table 1, incubation at 4° C., read-out: ETB.
Setting [2] is: Table 1, incubation at 4° C., read-out: ETA.
Setting [3] is: Table 1, † incubation at 24° C., read-out: ETB.
Setting [4] is: Table 1, † incubation at 24° C., read-out: ETA.
[5] abbreviates: Table 2, incubation at 4° C., read-out: ETB.
Where [6] appears, read: Table 2, incubation at 4° C., read-out: ETA.

Like-named read-outs stand apart in the source and are kept apart here.

Regarding `Cc1noc(NS(=O)(=O)c2ccn(-c3ccc(C(C)C)cc3)c2)c1Br` [N-(4-Bromo-3-methyl-5-isoxazolyl) 1-(4′-isopropylphenyl)pyrrole-3-sulfonamide], the IC50 on human ETB receptor (setting [1]) came out at 211 nM; on human ETA receptors (setting [2]), 838 nM.
Regarding `CCCc1cc2c(cc1OCc1ccsc1S(=O)(=O)Nc1onc(C)c1Br)OCO2` [N-(4-bromo-3-methyl-5-isoxazolyl)-3-{[2-propyl-4,5-(methylenedioxy)phenoxy]methyl}thiophene-2-sulfonamide], the IC50 was 1500 nM on human ETB receptor (setting [3]) and around 200 nM on human ETA receptors (setting [4]).
For `Cc1c(C(F)(F)F)noc1NS(=O)(=O)c1ccc(-c2ccccc2)cc1` [N-(4-Methyl-3-trifluoromethyl-5-isoxazolyl)-4-biphenylsulfonamide], the IC50 on human ETB receptor (setting [5]) turned out to be 1700 nM; on human ETB receptor (Table 2, † incubation at 24° C., read-out: ETB) it was 5620 nM; on human ETA receptors (setting [6]) it was 19000 nM.
For `Cc1cccc(-c2ccc(S(=O)(=O)Nc3onc(C)c3Br)s2)c1` [N-(4-bromo-3-methyl-5-isoxazolyl)-5-(3-tolyl)thiophene-2-sulfonamide], the IC50 at human ETB receptor (setting [3]) stood at 4200 nM; at human ETA receptors (setting [4]), 15000 nM.
`Cc1noc(NS(=O)(=O)c2ccccc2-c2ccccc2)c1C` [N-(3,4-dimethyl-5-isoxazolyl)-2-biphenylsulfonamide]: the figures for the IC50 on human ETB receptor (setting [5]), on human ETA receptors (setting [6]) and on human ETA receptors (read-out: IC50 for ETA receptors) were 12800 nM, 8.3 ± 1.4 nM and around 8 nM, respectively.
On to `Cc1noc(NS(=O)(=O)c2ccsc2C(=O)NCc2ccccc2)c1Br` [N-(4-Bromo-3-methyl-5-isoxazolyl)-2-(N-benzylaminocarbonyl)thiophene-3-sulfonamide], for which the IC50 at human ETB receptor (setting [1]) is 12700 nM; on human ETA receptors (setting [2]), 13 nM.
The matching figures for `Cc1noc(NS(=O)(=O)c2ccco2)c1Br` [N-(4-bromo-3-methyl-5-isoxazolyl)furan-2-sulfonamide]: 88100 nM and 750 nM.
In the case of `Cc1noc(NS(=O)(=O)c2sccc2CCc2ccc3c(c2)OCO3)c1Br` [N-(4-bromo-3-methyl-5-isoxazolyl)-3-[3,4-(methylenedioxy)phenethyl]thiophene-2-sulfonamide], the IC50 on human ETB receptor (setting [3]) is 18000 nM; at human ETA receptors (setting [4]) it was 236 nM.
Regarding `Cc1ccc(/C=C/c2sccc2S(=O)(=O)Nc2onc(C)c2Br)cc1`, the values for the IC50 on human ETB receptor (setting [3]) and at human ETA receptors (setting [4]) were 413 nM and 260 nM, respectively.
In the case of `CCc1sc2ccccc2c1S(=O)(=O)Nc1onc(C)c1Br` [N-(4-bromo-3-methyl-5-isoxazolyl)-2-ethylbenzo[b]thiophene-3-sulfonamide], the IC50 was 5130 nM at human ETB receptor (setting [1]) and 6.7 nM at human ETA receptors (setting [2]).
`Cc1noc(NS(=O)(=O)c2ccsc2COc2ccc3c(c2)OCO3)c1Br` [N-(4-bromo-3-methyl-5-isoxazolyl)-2-{[3,4-(methylenedioxy)phenoxy]methyl}thiophene-3-sulfonamide]: the IC50 at human ETB receptor (setting [3]) amounted to 6610 nM; at human ETA receptors (setting [4]), 302 nM.
The matching figures for `Cc1noc(NS(=O)(=O)c2sccc2-c2ccc3c(c2)OCO3)c1Br` [N-(4-bromo-3-methyl-5-isoxazolyl)-3-[(3,4-methylenedioxy)phenyl]thiophene-2-sulfonamide]: 79000 nM and 500 nM.
As to `COc1cccc(-c2ccc(S(=O)(=O)Nc3onc(C)c3Br)s2)c1` [N-(4-bromo-3-methyl-5-isoxazolyl)-5-(3-methoxyphenyl)thiophene-2-sulfonamide], the IC50 was 776 nM at human ETB receptor (setting [1]), 4700 nM on human ETB receptor (setting [3]), 3260 nM on human ETA receptors (setting [2]) and 23400 nM on human ETA receptors (setting [4]).
As for `Cc1noc(NS(=O)(=O)c2cccc(-c3ccccc3)c2)c1Br` [N-(4-bromo-3-methyl-5-isoxazolyl)-3-biphenylsulfonamide], the IC50 is 760 nM on human ETB receptor (setting [5]), around 760 nM at human ETB receptor (read-out: IC50 for ETB receptors) and around 30 nM on human ETA receptors (setting [6]).
Regarding `CCc1ccc(-c2ccc(S(=O)(=O)Nc3onc(C)c3Cl)s2)s1` [N-(4-chloro-3-methyl-5-isoxazolyl)-5-(5-ethylthien-2-yl)thiophene-2-sulfonamide], the IC50 stood at 710 nM on human ETB receptor (setting [3]) and 12000 nM on human ETA receptors (setting [4]).
Regarding `CCCc1sc2ccccc2c1S(=O)(=O)Nc1onc(C)c1Br` [N-(4-bromo-3-methyl-5-isoxazolyl)-2-n-propylbenzo[b]thiophene-3-sulfonamide], the IC50 is 7950 nM on human ETB receptor (setting [1]), 16600 nM at human ETB receptor (setting [3]), 24 nM on human ETA receptors (setting [2]) and 74 nM at human ETA receptors (setting [4]).
On to `Cc1noc(NS(=O)(=O)c2ccccc2-c2ccccc2)c1Cl` [N-(4-chloro-3-methyl-5-isoxazolyl)-2-biphenylsulfonamide], for which the results for the IC50 at human ETB receptor (setting [5]) and at human ETA receptors (setting [6]) were around 14000 nM and 1.23 nM, respectively.
For the compound `Cc1noc(NS(=O)(=O)c2ccc(S(=O)(=O)c3ccccc3)s2)c1Br` [N-(4-Bromo-3-methyl-5-isoxazolyl)-5-benzenesulfonylthiophene-2-sulfonamide], the IC50 was 333 nM at human ETB receptor (setting [1]) and 570 nM at human ETA receptors (setting [2]).
With `CCCc1ccc(-c2csc(S(=O)(=O)Nc3onc(C)c3Br)c2)cc1` [N-(4-bromo-3-methyl-5-isoxazolyl)-4-(4-propylphenyl)thiophene-2-sulfonamide], the IC50 stood at 435 nM at human ETB receptor (setting [3]) and 962 nM at human ETA receptors (setting [4]).
Regarding `COc1ccc(NC(=O)c2sccc2S(=O)(=O)Nc2onc(C)c2Br)cc1` [N-(4-Bromo-3-methyl-5-isoxazolyl)-2-[N-(4-methoxyphenyl)aminocarbonyl]thiophene-3-sulfonamide], the results for the IC50 at human ETB receptor (setting [1]) and on human ETA receptors (setting [2]) were 2120 nM and 2 nM, respectively.
As for `Cc1noc(NS(=O)(=O)c2ccsc2C(=O)NC(=O)c2ccc3c(c2)OCO3)c1Br` [N-(4-bromo-3-methyl-5-isoxazolyl)-2-[(3,4-methylenedioxy)benzoyl]aminocarbonyl]thiophene-3-sulfonamide], the IC50 at human ETB receptor (setting [3]) was determined as 37000 nM; at human ETA receptors (setting [4]), 89 nM.
In the case of `Cc1noc(NS(=O)(=O)c2c(Cc3ccccc3)sc3ccccc23)c1Br` [N-(4-bromo-3-methyl-5-isoxazolyl)-2-n-benzylbenzo[b]thiophene-3-sulfonamide], the IC50 is around 1000 nM at human ETB receptor (setting [1]) and 18.2 nM at human ETA receptors (setting [2]).
On the same counts, the results for `Cc1noc(NS(=O)(=O)c2cc(Cl)sc2Cl)c1Br` [N-(4-Bromo-3-methyl-5-isoxazolyl)-2,5-dichlorothiophene-3-sulfonamide] are 2620 nM and around 390 nM.
For `Cc1noc(NS(=O)(=O)c2ccc(-c3ccsc3)s2)c1Br` [N-(4-bromo-3-methyl-5-isoxazolyl)-5-(3-thienyl)thiophene-2-sulfonamide], the values for the IC50 at human ETB receptor (setting [1]) and at human ETA receptors (setting [2]) were 380 nM and 4490 nM, respectively.
For the compound `COc1ccc(-c2ccc(S(=O)(=O)Nc3onc(C)c3Br)s2)cc1` [N-(4-bromo-3-methyl-5-isoxazolyl)-5-(4-methoxyphenyl)thiophene-2-sulfonamide], the IC50 on human ETB receptor (setting [1]) was determined as 363 nM; on human ETB receptor (setting [3]), 2400 nM; on human ETA receptors (setting [2]) it was 8690 nM; on human ETA receptors (setting [4]) it was 26300 nM.
In the case of `CCc1sc2ccc(C)cc2c1S(=O)(=O)Nc1onc(C)c1Br` [N-(4-bromo-3-methyl-5-isoxazolyl)-2-ethyl-5-methylbenzo[b]thiophene-3-sulfonamide], the IC50 on human ETB receptor (setting [3]) was determined as 54300 ± 2600 nM; on human ETA receptors (setting [4]) it was 1890 ± 431 nM.
With `Cc1noc(NS(=O)(=O)c2ccsc2C(=O)Nc2ccccc2)c1Br` [N-(4-bromo-3-methyl-5-isoxazolyl)-2-(N-phenylaminocarbonyl)thiophene-3-sulfonamide], the figures for the IC50 on human ETB receptor (setting [1]) and on human ETA receptors (setting [2]) were 18800 nM and 5.4 nM, respectively.
The matching figures for `Cc1noc(NS(=O)(=O)c2ccc(CNC(=O)c3ccc(Cl)cc3)s2)c1Br` [N-(4-Bromo-3-methyl-5-isoxazolyl)-5-(4-chlorobenzamidomethyl)thiophene-2-sulfonamide]: 2570 nM and 311 nM.

Source of the values: patent publication US6683103B2, “Sulfonamides for treatment of endothelin-mediated disorders” (Texas Biotechnology Corporation, priority 1997, dated 2004).
